Holding throughout (assay): Enzyme inhibiting activity of MMPs, fluorogenic peptide substrate
Assay type in all cases: biochemical

One assay addresses T1, MMP-2 (Homo sapiens, UniProt P08253).
T1 construct: purchased Calbiochem (EMD/MERCK Biosciences)
T1 sequence (P08253 110-660): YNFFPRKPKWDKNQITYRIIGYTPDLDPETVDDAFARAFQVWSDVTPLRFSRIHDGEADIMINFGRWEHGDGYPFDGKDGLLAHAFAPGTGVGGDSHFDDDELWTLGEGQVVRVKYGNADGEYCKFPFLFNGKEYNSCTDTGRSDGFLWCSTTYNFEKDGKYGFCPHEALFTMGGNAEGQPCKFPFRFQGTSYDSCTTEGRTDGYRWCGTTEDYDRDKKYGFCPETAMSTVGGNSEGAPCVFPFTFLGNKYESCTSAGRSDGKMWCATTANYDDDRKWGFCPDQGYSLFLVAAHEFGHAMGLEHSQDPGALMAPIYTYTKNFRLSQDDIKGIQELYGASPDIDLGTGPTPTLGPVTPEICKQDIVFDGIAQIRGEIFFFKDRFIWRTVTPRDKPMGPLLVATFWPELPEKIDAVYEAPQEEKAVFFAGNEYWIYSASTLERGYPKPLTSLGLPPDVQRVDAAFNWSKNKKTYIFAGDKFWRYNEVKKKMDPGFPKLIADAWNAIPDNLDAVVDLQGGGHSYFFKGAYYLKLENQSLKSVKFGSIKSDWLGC
Conditions: substrate MOCAc-Pro-Leu-Gly-Leu-A2Pr(DNP)-Ala-Arg-NH2, fluorescent intensity. Put shortly: (§1)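 Recombinant human enzymes with the fluorogenic substrate MOCAc-Pro-Leu-Gly-Leu-A2Pr(DNP)-Ala-Arg-NH2. Fluorescence was read for enzyme+substrate±inhibitor and substrate±inhibitor blanks.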

A further assay concerns the target T2, MMP-9 (Homo sapiens, UniProt P14780).
T2 construct: purchased Calbiochem (EMD/MERCK Biosciences)
Conditions: substrate MOCAc-Pro-Leu-Gly-Leu-A2Pr(DNP)-Ala-Arg-NH2, fluorescent intensity. Put shortly: as §1

The next assay addresses T3, MMP-13 (Homo sapiens, UniProt P45452).
T3 construct: purchased Calbiochem (EMD/MERCK Biosciences)
Conditions: APMA-activated proenzyme; substrate MOCAc-Pro-Leu-Gly-Leu-A2Pr(DNP)-Ala-Arg-NH2, fluorescent intensity; read-out: IC50 MMP-13. Put shortly: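 Pro-MMP-13 was activated with 1 mM APMA at 37° C for 2 h in 50 mM Tris-HCl pH 7.6, 0.3 M NaCl, 10 mM CaCl2, 0.005% Brij35. Activity was read by fluorescence using MOCAc-Pro-Leu-Gly-Leu-A2Pr(DNP)-Ala-Arg-NH2 substrate, with enzyme and inhibitor blank corrections. IC50 is the concentration giving 50% inhibition.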

Bounds are passed on as bounds.

T2 sequence (P14780 94-707): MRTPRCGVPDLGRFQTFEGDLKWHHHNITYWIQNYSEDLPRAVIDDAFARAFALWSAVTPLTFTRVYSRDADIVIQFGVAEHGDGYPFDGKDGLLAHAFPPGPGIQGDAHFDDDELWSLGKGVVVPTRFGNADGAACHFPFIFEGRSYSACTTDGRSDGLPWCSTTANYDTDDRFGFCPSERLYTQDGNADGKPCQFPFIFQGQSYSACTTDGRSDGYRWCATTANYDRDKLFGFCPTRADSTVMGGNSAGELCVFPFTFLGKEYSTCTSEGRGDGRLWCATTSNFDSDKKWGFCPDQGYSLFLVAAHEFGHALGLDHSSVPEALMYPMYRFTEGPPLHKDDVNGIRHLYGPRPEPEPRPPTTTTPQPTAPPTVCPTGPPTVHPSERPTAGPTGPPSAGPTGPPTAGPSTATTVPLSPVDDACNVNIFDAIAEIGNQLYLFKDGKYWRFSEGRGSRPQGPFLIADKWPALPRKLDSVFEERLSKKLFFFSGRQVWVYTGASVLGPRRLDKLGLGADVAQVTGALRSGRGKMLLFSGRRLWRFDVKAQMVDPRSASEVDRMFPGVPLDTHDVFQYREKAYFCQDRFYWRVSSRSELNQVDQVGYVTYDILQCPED

The IC50 is the concentration needed to halve the response being measured. Turning to “(R)-2-{4-[4(1-methyloxazol-5-yl-1H-indol-5-ylethynyl)-phenyl]-piperazine-1-sulfonylamino}-proponic acid [Compound V-47]”, the IC50 at MMP-2 is 1000 to 10000 nM; on MMP-9 it was above 10000 nM; on MMP-13, 4 nM.

For the compound `CC(=O)c1nccc2ccc(C#Cc3ccc(N4CCN(S(=O)(=O)N[C@@H](C(=O)O)C(C)C)CC4)cc3)cc12` [Compound V-1, (R)-2-{4-[4-(1-acetylisoquinolin-7-ylethynyl)-phenyl]-piperazine-1-sulfonylamino}-3-methylbutanoic acid], the IC50 was 1000 to 10000 nM against MMP-2, above 10000 nM against MMP-9 and 46 nM on MMP-13.

Consider `CC(C)[C@@H](NS(=O)(=O)N1CCN(c2ccc(C#Cc3ccnc(C(=O)NCc4cc(F)cc(F)c4)c3)cc2)CC1)C(=O)O` [III-192, (R)-2-(4-{4-[2-(3,5-difluorobenzylcarbamoyl)-pyridin-4-ylethynyl]-phenyl}-piperazine-1-sulfonylamino)-3-methylbutanoic acid], for which the IC50 was 1000 to 10000 nM against MMP-2, above 10000 nM on MMP-9 and 8 nM on MMP-13.

With `CC(C)[C@@H](NS(=O)(=O)N1CCN(c2ccc(C#Cc3ccnc(C(=O)NCc4ccc(SC(F)(F)F)cc4)c3)cc2)CC1)C(=O)O` [III-222, (R)-3-methyl-2-(4-{4-[2-(4-trifluoromethylsulfanylbenzylcarbamoyl)-pyridin-4-ylethynyl]-phenyl}-piperazine-1-sulfonylamino)-butanoic acid], the IC50 at MMP-2 is above 10000 nM; against MMP-9, above 10000 nM; at MMP-13 it was 23 nM.

With `Cc1cccc(CNC(=O)c2cc(C#Cc3ccc(N4CCN(S(=O)(=O)N[C@@H](C(=O)O)C(C)C)CC4)cc3)ccn2)c1` [III-186, (R)-3-methyl-2-(4-{4-[2-(3-methylbenzylcarbamoyl)-pyridin-4-ylethynyl]-phenyl}-piperazine-1-sulfonylamino)-butanoic acid], the IC50 at MMP-2 was 1000 to 10000 nM; against MMP-9, above 10000 nM; on MMP-13, 12 nM.

As for `CC(C)[C@@H](NS(=O)(=O)N1CCN(c2ccc(C#Cc3ccnc(C(=O)NCc4ccc(C(C)(C)C)cc4)c3)cc2)CC1)C(=O)O` [III-154, (R)-2-(4-{4-[2-(4-tert-butylbenzylcarbamoyl)-pyridin-4-ylethynyl]-phenyl}-piperazine-1-sulfonylamino)-3-methylbutanoic acid], the figures for the concentration for half-maximal inhibition (IC50) against MMP-2, against MMP-9 and at MMP-13 were above 10000 nM, above 10000 nM and 21 nM, respectively.

Turning to `CC(=O)c1cccc2ccc(C#Cc3ccc(N4CCN(S(=O)(=O)N[C@@H](CO)C(=O)O)CC4)cc3)cc12` [III-24, (S)-2-{4-[4-(8-acetylnaphthalen-2-ylethynyl)-phenyl]-piperazine-1-sulfonylamino}-3-hydroxyproponic acid], the IC50 is above 10000 nM on MMP-2, above 10000 nM on MMP-9 and 26 nM at MMP-13.

Consider `C[C@@H](NS(=O)(=O)N1CCN(c2ccc(C#Cc3ccnc(C(=O)NCc4ccc5c(c4)oc(=O)n5C)c3)cc2)CC1)C(=O)O` [Compound V-2, (R)-2-[4-(4-{2-(3-methyl-2-oxo-2,3-dihydrobenzoxazol-6-ylmethyl)-carbamoyl]-pyridin-4-ylethynyl}-phenyl)-piperazine-1-sulfonylaminol-proponic acid], for which the IC50 was 1000 nM at MMP-2, above 10000 nM against MMP-9 and 1 nM at MMP-13.

As to `CC(C)[C@@H](NS(=O)(=O)N1CCN(c2ccc(C#Cc3ccnc(C(=O)NCc4cccc(C#N)c4)c3)cc2)CC1)C(=O)O` [Compound V-32, (R)-2-(4-{4-[2-(3-cyanobenzylcarbamoyl)-pyridin-4-ylethynyl]-phenyl}-piperazine-1-sulfonylamino)-3-methylbutanoic acid], the IC50 on MMP-2 was 1000 to 10000 nM; on MMP-9, above 10000 nM; on MMP-13, 16 nM.

Consider `CC(C)[C@@H](NS(=O)(=O)N1CCN(c2ccc(C#Cc3ccnc(C(=O)NCc4ccc(N5CCCCC5)cc4)c3)cc2)CC1)C(=O)O` [III-171, (R)-3-methyl-2-(4-{4-[2-(4-piperidin-1-ylbenzylcarbamoyl)-pyridin-4-ylethynyl]-phenyl}-piperazine-1-sulfonylamino)-butanoic acid], for which the figures for the IC50 at MMP-2, on MMP-9 and on MMP-13 were 1000 to 10000 nM, above 10000 nM and 7 nM, respectively.

With `CC(C)c1ccc(CNC(=O)c2cc(C#Cc3ccc(N4CCN(S(=O)(=O)N[C@@H](C(=O)O)C(C)C)CC4)cc3)ccn2)cc1` [III-195, (R)-2-(4-{4-[2-(4-isopropylbenzylcarbamoyl)-pyridin-4-ylethynyl]-phenyl}-piperazine-1-sulfonylamino)-3-methylbutanoic acid], the figures for the IC50 against MMP-2, against MMP-9 and at MMP-13 were above 10000 nM, above 10000 nM and 7 nM, respectively.

In the case of `CC(C)[C@@H](NS(=O)(=O)N1CCN(c2ccc(C#Cc3ccnc(C(=O)NCc4ccc(C#N)cc4)c3)cc2)CC1)C(=O)O` [Compound V-31, (R)-2-(4-{4-[2-(4-cyanobenzylcarbamoyl)-pyridin-4-ylethynyl]-phenyl}-piperazine-1-sulfonylamino)-3-methylbutanoic acid], the IC50 is 1000 to 10000 nM on MMP-2, above 10000 nM against MMP-9 and 3 nM on MMP-13.

For the compound `C/C=C/c1cccc2ccc(C#Cc3ccc(N4CCN(S(=O)(=O)N[C@H](C)C(=O)O)CC4)cc3)cc12` [III-38, (R)-2-(4-{4-[((E)-8-propenyl)-naphthalen-2-ylethynyl]-phenyl}-piperazine-1-sulfonylamino)-proponic acid], the IC50 at MMP-2 was above 10000 nM; against MMP-9, above 10000 nM; at MMP-13, 29 nM.

As for `CC(C)[C@@H](NS(=O)(=O)N1CCN(c2ccc(C#Cc3ccnc(C(=O)NCc4ccc(N(C)C)cc4)c3)cc2)CC1)C(=O)O` [III-212, (R)-2-(4-{4-[2-(4-dimethylaminobenzylcarbamoyl)-pyridin-4-ylethynyl]-phenyl}-piperazine-1-sulfonylamino)-3-methylbutanoic acid], the IC50 at MMP-2 was 1000 to 10000 nM; against MMP-9, above 10000 nM; on MMP-13, 4 nM.

As for `CC(C)[C@@H](NS(=O)(=O)N1CCN(c2ccc(C#Cc3ccc4ccn(Cc5ccccc5)c(=O)c4c3)cc2)CC1)C(=O)O` [III-27, (R)-2-{4-[4-(2-benzyl1-oxo-1,2-dihydroisoquinolin-7-ylethynyl)-phenyl]-piperazine-1-sulfonylamino}-3-methylbutanoic acid], the IC50 is above 10000 nM against MMP-2, above 10000 nM against MMP-9 and 19 nM at MMP-13.

In the case of “(R)-3-methyl-2-{4-[4-(1-methyl2,4-dioxo-3-pyridin-4-ylmethyl-1,2,3,4-tetrahydroquinazolin-6-ylethynyl)-phenyl]-piperazine-1-sulfonylamino}-3-methylbutanoic acid [Compound V-77]”, the IC50 is above 10000 nM at MMP-2, above 10000 nM against MMP-9 and 4 nM on MMP-13.

Take `CC(C)Oc1ccc(C#Cc2ccc(N3CCN(S(=O)(=O)N[C@H](C)C(=O)O)CC3)cc2)cc1C(=O)NCc1cccc(Cl)c1` [III-118, (R)-2-(4-{4-[3-(3-chrolobenzylcarbamoyl)-4-isopropoxyphenylethynyl]-phenyl}-piperazine-1-sulfonylamino)-proponic acid]: the IC50 was above 10000 nM against MMP-2, above 10000 nM against MMP-9 and 28 nM on MMP-13.

Regarding `Cc1cc(CNC(=O)c2cc(C#Cc3ccc(N4CCN(S(=O)(=O)N[C@@H](C(=O)O)C(C)C)CC4)cc3)ccn2)ccc1F` [III-184, (R)-2-(4-{4-[2-(4-fluoro-3-methylbenzylcarbamoyl)-pyridin-4-ylethynyl]-phenyl}-piperazine-1-sulfonylamino)-3-methylbutanoic acid], the 50% inhibitory concentration (IC50) against MMP-2 is 1000 to 10000 nM; against MMP-9, above 10000 nM; at MMP-13, 14 nM.

Take `CC(C)[C@@H](NS(=O)(=O)N1CCN(c2ccc(C#Cc3ccnc(C(=O)NCc4cccs4)c3)cc2)CC1)C(=O)O` [III-187, (R)-3-methyl-2-[4-(4-{2-[(thiophen-2-ylmethyl)-carbamoyl]-pyridin-4-ylethynyl}-phenyl)-piperazine-1-sulfonylamino]-butanoic acid]: the IC50 on MMP-2 was 1000 to 10000 nM; against MMP-9, above 10000 nM; at MMP-13, 7 nM.

For `CC(C)[C@@H](NS(=O)(=O)N1CCN(c2ccc(C#Cc3ccnc(C(=O)NCc4cccc(CNC(=O)OC(C)(C)C)c4)c3)cc2)CC1)C(=O)O` [III-224, (R)-2-[4-(4-{2-[3-(tert-butoxycarbonylaminomethyl)-benzylcarbamoyl]-pyridin-4-ylethynyl}-phenyl)-piperazine-1-sulfonylamino]-3-methylbutanoic acid], the IC50 at MMP-2 is 1000 to 10000 nM; against MMP-9, above 10000 nM; at MMP-13, 16 nM.

These data come from patent US20100099676A1 (SHIONOGI & CO., LTD., priority 2006, published 2010).
